Test results as given in patent US20090209460A1, “COMPOSITIONS AND METHODS FOR TREATING OBESITY AND RELATED METABOLIC DISORDERS” (Amylin Pharmaceuticals, Inc., priority 2005, published 2009).
Read-outs that look alike come from different tables or passages of the source. Residues, ends and D or L forms follow the SMILES beside them.

Legend:
NIH/Swiss mice = experiment: acute food intake assay, lean overnight-fasted NIH/Swiss mice, intraperitoneal injection; format: in vivo, mouse; settings: for Food Intake Inhibition: mouse assay, dose of 200 mg/kg, measured at 60 minutes
Procedure: The effect of NMX Peptides, FNX Peptides or NMX Receptor agonists on food intake when systemically administered was investigated using an acute food intake assay. This assay measured food consumption in lean subjects. Lean, group-housed, overnight-fasted NIH/Swiss mice. All in vivo tests were performed with peripheral injections of peptide. […] The dose-response data are presented herein. The protocol is described below. Female NIH/Swiss mice (8-24 weeks old) were group housed with a 12:12 hour light:dark cycle, with lights on at 0300. Water and a standard pelleted mouse chow diet are available ad libitum, except as noted. Animals are fasted starting at approximately 1530 hrs, 1 day prior to experiment. At time=0 min, all animals are given an intraperitoneal injection of vehicle or polypeptide in a volume of 200 uL/mouse and immediately given a pre-weighed amount (10-15 g) of the standard chow. Food is removed and weighed at 30, 60, and 120 minutes to determine the amount of food consumed. The effects of treatment on food intake are expressed as % change relative to control.

[1] = brush border membrane (BBM) stability assay; format: in vitro ADME, human; settings: brush border membrane extract (e.g. kidney)
Procedure: Some exemplary NMX Peptides and FNX Peptides were tested for stability in a brush border membrane (BBM) assay as described herein. To determine the enzymatic stability of peptide hormones peptides are incubated with a preparation of human brush border membranes extract (e.g., kidney), and the stability of the peptide is determined by measuring concentration of the intact peptide at specific intervals. The brush border membrane extract contains dipeptidyl peptidase IV (DPP-IV), neutral endopeptidases, peptidyl-dipeptidase A, carboxypeptidases and aminopeptidases. These are the primary enzymes that degrade peptides in vivo and are found in the kidneys, liver, lungs and pancreas. Resistance against these human proteases would increase peptide half-life. In the BBM assay test peptide was subjected to digestion over a period of five (5) hours with human brush border membrane extracts, e.g. kidney, at 37° C. At desired timepoints digestion was stopped by addition of quench solution, typically 50% ACN, 1% FA. After centrifugation to remove membrane debris, supernatant was subjected to mass spectrometry using a selected ion scan for the intact molecule of interest. Values are expressed as a percent of stable. A value of at least 80 or greater is regarded as an extremely stable molecule. A value of at least 70 or greater is a molecule with significant stability.

[2] = percent compound remaining after a 5 hour incubation, human brush border membrane assay, read-out: hBBM

Row | SMILES | remaining at 5 h [1, 2] | remaining at 5 h ([1]; percent of stable, human brush border membrane extracts, five hours, 37° C., read-out: BBM) | Food Intake Inhibition (NIH/Swiss mice) | FI (60′, 200) (NIH/Swiss mice; food intake, % change relative to control, 60 min, dose 200)
1 | CC(C)C[C@H](NC(=O)[C@H](CCCCN)NC(=O)[C@H](CCC(N)=O)NC(=O)[C@@H](NC(=O)[C@H](CCCCN)NC(=O)[C@H](CO)NC(=O)[C@H](Cc1ccc(O)cc1)NC(=O)[C@H](Cc1c[nH]cn1)NC(=O)[C@H](Cc1ccccc1)NC(=O)[C@H](CC(C)C)NC(=O)[C@@H](N)Cc1ccccc1)[C@@H](C)O)C(=O)NCC(=O)N[C@@H](CCCCN)C(=O)N[C@@H](CO)C(=O)N[C@@H](CC(N)=O)C(=O)N[C@H](C(=O)N[C@H](C(=O)N[C@@H](CCC(=O)O)C(=O)N[C@@H](CCC(=O)O)C(=O)N[C@@H](CC(C)C)C(=O)N[C@@H](CCC(N)=O)C(=O)N[C@@H](CO)C(=O)N1CCC[C@H]1C(=O)N[C@@H](Cc1ccccc1)C(=O)N[C@@H](C)C(=O)N[C@@H](CO)C(=O)N[C@@H](CCC(N)=O)C(=O)N[C@@H](CO)C(=O)N[C@@H](CCCNC(=N)N)C(=O)NCC(=O)N[C@@H](Cc1ccccc1)C(=O)N[C@@H](Cc1ccccc1)C(=O)N[C@@H](CC(C)C)C(=O)N[C@@H](Cc1ccccc1)C(=O)N[C@@H](CCCNC(=N)N)C(=O)N1CCC[C@H]1C(=O)N[C@@H](CCCNC(=N)N)C(=O)N[C@@H](CC(N)=O)C(N)=O)C(C)C)C(C)C [(Phe31]FN38] (H-FLFHYSKTQKLGKSNVVEELQSPFASQSRGFFLFRPRN-NH2; N-terminus assumed) | 81% | – | −64% | –
2 | CC(C)C[C@H](NC(=O)[C@H](CCCCN)NC(=O)[C@H](CCC(N)=O)NC(=O)[C@@H](NC(=O)[C@H](CCCCN)NC(=O)[C@H](CO)NC(=O)[C@H](Cc1ccc(O)cc1)NC(=O)[C@H](Cc1c[nH]cn1)NC(=O)[C@H](Cc1ccccc1)NC(=O)[C@H](CC(C)C)NC(=O)[C@@H](N)Cc1ccccc1)[C@@H](C)O)C(=O)NCC(=O)N[C@@H](CCCCN)C(=O)N[C@@H](CO)C(=O)N[C@@H](CC(N)=O)C(=O)N[C@H](C(=O)N[C@H](C(=O)N[C@@H](CCC(=O)O)C(=O)N[C@@H](CCC(=O)O)C(=O)N[C@@H](CC(C)C)C(=O)N[C@@H](CCC(N)=O)C(=O)N[C@@H](CO)C(=O)N1CCC[C@H]1C(=O)N[C@@H](Cc1ccccc1)C(=O)N[C@@H](C)C(=O)N[C@@H](CO)C(=O)N[C@@H](CCC(N)=O)C(=O)N[C@@H](CO)C(=O)N[C@@H](CCCNC(=N)N)C(=O)NCC(N)=O)C(C)C)C(C)C [Compound 165062] (H-FLFHYSKTQKLGKSNVVEELQSPFASQSRG-NH2; N-terminus assumed) | – | 40% | – | 0%
3 | CC(C)C[C@H](NC(=O)[C@H](CCCCN)NC(=O)[C@H](CCC(N)=O)NC(=O)[C@@H](NC(=O)[C@H](CCCCN)NC(=O)[C@H](CO)NC(=O)[C@@H](N)Cc1ccc(O)cc1)[C@@H](C)O)C(=O)NCC(=O)N[C@@H](CCCCN)C(=O)N[C@@H](CO)C(=O)N[C@@H](CC(N)=O)C(=O)N[C@H](C(=O)N[C@H](C(=O)N[C@@H](CCC(=O)O)C(=O)N[C@@H](CCC(=O)O)C(=O)N[C@@H](CC(C)C)C(=O)N[C@@H](CCC(N)=O)C(=O)N[C@@H](CO)C(=O)N1CCC[C@H]1C(=O)N[C@@H](Cc1ccccc1)C(=O)N[C@@H](C)C(=O)N[C@@H](CO)C(=O)N[C@@H](CCC(N)=O)C(=O)N[C@@H](CO)C(=O)N[C@@H](CCCNC(=N)N)C(=O)NCC(=O)N[C@@H](Cc1ccc(O)cc1)C(=O)N[C@@H](Cc1ccccc1)C(=O)N[C@@H](CC(C)C)C(=O)N[C@@H](Cc1ccccc1)C(=O)N[C@@H](CCCNC(=N)N)C(=O)N1CCC[C@H]1C(=O)N[C@@H](CCCNC(=N)N)C(=O)N[C@@H](CC(N)=O)C(N)=O)C(C)C)C(C)C [Des-(Phe1,Leu2,Phe3,His4)FN38] (H-YSKTQKLGKSNVVEELQSPFASQSRGYFLFRPRN-NH2; N-terminus assumed) | 41% | – | −58% | –

The next lines start with results.

Row | remaining at 5 h [1, 2] | remaining at 5 h ([1]; percent of stable, human brush border membrane extracts, five hours, 37° C., read-out: BBM) | SMILES | Food Intake Inhibition (NIH/Swiss mice) | FI (60′, 200) (NIH/Swiss mice; food intake, % change relative to control, 60 min, dose 200)
4 | 61% | – | CC(C)C[C@H](NC(=O)[C@H](CCCCN)NC(=O)[C@H](CCC(N)=O)NC(=O)[C@@H](NC(=O)[C@H](CCCCN)NC(=O)[C@H](CO)NC(=O)[C@H](Cc1ccc(O)cc1)NC(=O)[C@H](Cc1c[nH]cn1)NC(=O)[C@H](Cc1ccccc1)NC(=O)[C@H](CC(C)C)NC(=O)[C@@H](N)Cc1ccccc1)[C@@H](C)O)C(=O)NCC(=O)N[C@@H](CCCCN)C(=O)N[C@@H](CO)C(=O)N[C@@H](CC(N)=O)C(=O)N[C@H](C(=O)N[C@H](C(=O)N[C@@H](CCC(=O)O)C(=O)N[C@@H](CCC(=O)O)C(=O)N[C@@H](CC(C)C)C(=O)N[C@@H](CCC(N)=O)C(=O)N[C@@H](CO)C(=O)N1CCC[C@H]1C(=O)N[C@@H](CO)C(=O)N[C@@H](CCCNC(=N)N)C(=O)NCC(=O)N[C@@H](Cc1ccc(O)cc1)C(=O)N[C@@H](Cc1ccccc1)C(=O)N[C@@H](CC(C)C)C(=O)N[C@@H](Cc1ccccc1)C(=O)N[C@@H](CCCNC(=N)N)C(=O)N1CCC[C@H]1C(=O)N[C@@H](CCCNC(=N)N)C(=O)N[C@@H](CC(N)=O)C(N)=O)C(C)C)C(C)C [Des-(Phe24,Ala25,Ser26,Gln27)-FN38] (H-FLFHYSKTQKLGKSNVVEELQSPSRGYFLFRPRN-NH2; N-terminus assumed) | −83% | –
5 | 73% | – | CC(C)C[C@H](NC(=O)[C@H](CCCCN)NC(=O)[C@H](CCC(N)=O)NC(=O)[C@@H](NC(=O)[C@H](CCCCN)NC(=O)[C@H](CO)NC(=O)[C@H](Cc1ccc(O)cc1)NC(=O)[C@H](Cc1c[nH]cn1)NC(=O)[C@H](Cc1ccccc1)NC(=O)[C@H](CC(C)C)NC(=O)[C@@H](N)Cc1ccccc1)[C@@H](C)O)C(=O)NCC(=O)N[C@@H](CCCCN)C(=O)N[C@@H](CO)C(=O)N[C@@H](CC(N)=O)C(=O)N[C@@H](CCC(=O)O)C(=O)N[C@@H](CCC(=O)O)C(=O)N[C@@H](CC(C)C)C(=O)N[C@@H](CCC(N)=O)C(=O)N[C@@H](CO)C(=O)N1CCC[C@H]1C(=O)N[C@@H](Cc1ccccc1)C(=O)N[C@@H](C)C(=O)N[C@@H](CO)C(=O)N[C@@H](CCC(N)=O)C(=O)N[C@@H](CO)C(=O)N[C@@H](CCCNC(=N)N)C(=O)NCC(=O)N[C@@H](Cc1ccc(O)cc1)C(=O)N[C@@H](Cc1ccccc1)C(=O)N[C@@H](CC(C)C)C(=O)N[C@@H](Cc1ccccc1)C(=O)N[C@@H](CCCNC(=N)N)C(=O)N1CCC[C@H]1C(=O)N[C@@H](CCCNC(=N)N)C(=O)N[C@@H](CC(N)=O)C(N)=O [Des-Val16,Val17-FN38] (H-FLFHYSKTQKLGKSNEELQSPFASQSRGYFLFRPRN-NH2; N-terminus assumed) | −60% | –
